US11377442B2, “Small molecule agonists and antagonists of NR2F6 activity” (ZANDER THERAPEUTICS, INC., priority 2016, dated 2022)

Target: T1, NR2F6 (Homo sapiens, UniProt P10588)
T1 construct: expressed in transfected cells; also transient transfection
T1 sequence (P10588 1-404): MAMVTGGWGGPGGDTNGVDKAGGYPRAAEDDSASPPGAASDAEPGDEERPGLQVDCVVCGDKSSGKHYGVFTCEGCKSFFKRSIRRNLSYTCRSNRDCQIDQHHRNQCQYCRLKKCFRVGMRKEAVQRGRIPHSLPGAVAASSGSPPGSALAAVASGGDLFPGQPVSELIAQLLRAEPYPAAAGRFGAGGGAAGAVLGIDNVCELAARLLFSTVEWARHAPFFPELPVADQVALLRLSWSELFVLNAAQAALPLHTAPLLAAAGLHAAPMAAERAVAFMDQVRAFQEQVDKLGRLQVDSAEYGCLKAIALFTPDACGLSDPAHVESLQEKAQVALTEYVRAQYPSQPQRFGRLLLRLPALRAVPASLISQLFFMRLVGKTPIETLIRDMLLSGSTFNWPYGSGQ
Assay: NR2F6 agonist screening, Firefly signal cmpd/DMSO
Format: cell-based
Parameters: Firefly NR2F6 full length, cmpd/DMSO (mean) / Firefly F4, cmpd/DMSO (mean): unit of the concentration uncertain
Conditions: for Firefly/Renilla (NR2F6 stable, clone F4): ratio Firefly/Renilla; for Firefly, NR2F6 stable (clone F4)/pGL4: ratio of Firefly in NR2F6 stable clone F4 to pGL4

[1] = C11 analogs follow set (Tables 2-10), repeat 1
[2] = C11 analogs follow set (Tables 2-10), repeat 2
[3] = Concentration 2 (unit uncertain)
[4] = Concentration 10 (unit uncertain)
[5] = Concentration 40 (unit uncertain)

SMILES	Firefly, cmpd/DMSO repeat 1 [1]	Firefly, cmpd/DMSO repeat 2 [2]	Firefly, cmpd/DMSO repeat 1 (Table 11, repeat 1)	Firefly, cmpd/DMSO repeat 2 (Table 11, repeat 2)	further results
CCOc1cccc2cc(S(=O)(=O)c3cccc(Cl)c3)c(=O)oc12 [Compound C256]	–	–	–	–	Firefly, cmpd/DMSO repeat 1 (Table 9, repeat 1): 11.5; Firefly, cmpd/DMSO repeat 2 (Table 9, repeat 2): 7.9; Firefly/Renilla (NR2F6 stable, clone F4) (Table 12): 2.3; Firefly, NR2F6 stable (clone F4)/pGL4 (Table 12): 4.5; Firefly, cmpd/DMSO repeat 1 (Table 12, repeat 1): 11.5; Firefly, cmpd/DMSO repeat 2 (Table 12, repeat 2): 7.9
COc1cccc2cc(S(=O)(=O)c3ccc(F)c(C)c3)c(=O)oc12 [Compound C257]	–	–	–	–	Firefly, cmpd/DMSO repeat 1 (Table 9, repeat 1): 2.1; Firefly, cmpd/DMSO repeat 2 (Table 9, repeat 2): 1.6
CCOc1cccc2cc(S(=O)(=O)c3ccc(F)c(C)c3)c(=O)oc12 [Compound C258]	–	–	–	–	Firefly, cmpd/DMSO repeat 1 (Table 9, repeat 1): 1.5; Firefly, cmpd/DMSO repeat 2 (Table 9, repeat 2): 1.8
COc1cccc(S(=O)(=O)c2cc3ccc(OC)cc3oc2=O)c1 [Compound C259]	1.3	1.9	–	–	–
COc1ccc2cc(S(=O)(=O)c3cc(C)cc(C)c3)c(=O)oc2c1 [Compound C260]	1.0	1.0	–	–	–
COc1ccc2cc(S(=O)(=O)c3ccc(C)c(Cl)c3)c(=O)oc2c1 [Compound C261]	2.0	1.4	–	–	–
COc1ccc2cc(S(=O)(=O)c3cc(F)cc(F)c3)c(=O)oc2c1 [Compound C262]	1.8	2.2	–	–	–
COc1ccc2cc(S(=O)(=O)c3cccc(C#N)c3)c(=O)oc2c1 [Compound C263]	1.8	1.7	–	–	–
COc1ccc2cc(S(=O)(=O)c3ccccc3)c(=O)oc2c1 [Compound C264]	1.1	0.8	–	–	–
COc1ccc2cc(S(=O)(=O)c3ccc(C)cc3)c(=O)oc2c1 [Compound C265]	1.0	1.3	–	–	–
COc1ccc(S(=O)(=O)c2cc3ccc(OC)cc3oc2=O)cc1 [Compound C266]	0.9	1.2	–	–	–
COc1ccc2cc(S(=O)(=O)c3ccc(Br)cc3)c(=O)oc2c1 [Compound C267]	1.4	1.7	–	–	–
COc1ccc2cc(S(=O)(=O)c3ccc(C(C)(C)C)cc3)c(=O)oc2c1 [Compound C268]	2.8	3.1	–	–	–
COc1ccc2cc(S(=O)(=O)c3ccc(C(C)C)cc3)c(=O)oc2c1 [Compound C269]	3.0	3.0	–	–	–
COc1ccc2cc(S(=O)(=O)c3ccc(C)c(C)c3)c(=O)oc2c1 [Compound C270]	3.2	3.1	–	–	–
COc1ccc2cc(S(=O)(=O)c3ccc(Cl)cc3)c(=O)oc2c1 [Compound C271]	2.2	1.2	–	–	–
COc1ccc2cc(S(=O)(=O)c3ccc(Cl)c(Cl)c3)c(=O)oc2c1 [Compound C272]	4.5	3.1	–	–	–
O=c1oc2cc(O)ccc2cc1S(=O)(=O)c1ccccc1 [Compound C273]	2.0	1.5	–	–	–
COc1ccc2cc(S(=O)(=O)c3ccc(OC)c(OC)c3)c(=O)oc2c1 [Compound C274]	3.3	3.5	–	–	–
COc1ccc2cc(S(=O)(=O)c3ccc(F)c(Cl)c3)c(=O)oc2c1 [Compound C275]	2.6	2.5	–	–	–
O=c1oc2cc(O)ccc2cc1S(=O)(=O)c1ccc(F)c(Cl)c1 [Compound C276]	1.2	1.3	–	–	–
CCN(CC)c1ccc2cc(S(=O)(=O)c3ccc(C)cc3)c(=O)oc2c1 [Compound C277]	3.4	2.9	–	–	–
CCN(CC)c1ccc2cc(S(=O)(=O)c3ccc(Br)cc3)c(=O)oc2c1 [Compound C278]	2.4	3.0	–	–	–
CCN(CC)c1ccc2cc(S(=O)(=O)c3ccc(Cl)cc3)c(=O)oc2c1 [Compound C279]	3.9	2.1	–	–	–

SMILES	Firefly, cmpd/DMSO repeat 1 [1]	Firefly, cmpd/DMSO repeat 2 [2]	Firefly, cmpd/DMSO repeat 1 (Table 11, repeat 1)	Firefly, cmpd/DMSO repeat 2 (Table 11, repeat 2)	further results
COc1ccc2cc(S(=O)(=O)c3ccccc3F)c(=O)oc2c1 [Compound C280]	0.6	0.6	–	–	–
COc1ccc2cc(S(=O)(=O)c3cccc(Cl)c3)c(=O)oc2c1 [Compound C281]	3.0	4.4	–	–	–
COc1ccc2cc(S(=O)(=O)c3ccc(F)c(C)c3)c(=O)oc2c1 [Compound C282]	0.7	1.1	–	–	–
COc1ccc(S(=O)(=O)c2cc3cc(Br)cc(Br)c3oc2=O)cc1 [Compound C283]	–	–	1.0	1.3	–
CC(C)c1ccc(S(=O)(=O)c2cc3cc(Br)cc(Br)c3oc2=O)cc1 [Compound C284]	–	–	2.9	2.5	–
Cc1ccc(S(=O)(=O)c2cc3cc(Br)cc(Br)c3oc2=O)cc1C [Compound C285]	–	–	1.0	1.0	–
O=c1oc2c(Br)cc(Br)cc2cc1S(=O)(=O)c1ccc(Cl)cc1 [Compound C286]	–	–	2.3	2.4	–
O=c1oc2c(Br)cc(Br)cc2cc1S(=O)(=O)c1ccc(Cl)c(Cl)c1 [Compound C287]	–	–	3.0	2.6	–
O=c1oc2c(F)cc(F)cc2cc1S(=O)(=O)c1ccccc1 [Compound C288]	–	–	6.8	3.3	–
COc1ccc(S(=O)(=O)c2cc3cc(F)cc(F)c3oc2=O)cc1 [Compound C289]	–	–	31.3	15.6	Firefly/Renilla (NR2F6 stable, clone F4) (Table 12): 2.0; Firefly, NR2F6 stable (clone F4)/pGL4 (Table 12): 15.3; Firefly, cmpd/DMSO repeat 1 (Table 12, repeat 1): 31.3; Firefly, cmpd/DMSO repeat 2 (Table 12, repeat 2): 15.6
O=c1oc2c(F)cc(F)cc2cc1S(=O)(=O)c1ccc(Br)cc1 [Compound C290]	–	–	13.8	14.6	–
CC(C)(C)c1ccc(S(=O)(=O)c2cc3cc(F)cc(F)c3oc2=O)cc1 [Compound C291]	–	–	0.9	0.8	–
Cc1cc(S(=O)(=O)c2cc3cc(F)cc(F)c3oc2=O)ccc1F [Compound C292]	–	–	18.3	14.8	Firefly/Renilla (NR2F6 stable, clone F4) (Table 13): 1.1; Firefly, NR2F6 stable (clone F4)/pGL4 (Table 13): 9.7; Firefly, cmpd/DMSO repeat 1 (Table 13, repeat 1): 18.3; Firefly, cmpd/DMSO repeat 2 (Table 13, repeat 2): 14.8
O=c1oc2c(F)cc(F)cc2cc1S(=O)(=O)c1ccc(Cl)cc1 [Compound C293]	–	–	8.5	11.9	–
COc1cc(Br)cc2cc(S(=O)(=O)c3ccccc3)c(=O)oc12 [Compound C294]	–	–	16.5	16.5	–
COc1cc(Br)cc2cc(S(=O)(=O)c3ccc(F)cc3)c(=O)oc12 [Compound C295]	–	–	4.0	4.6	–
COc1ccc(S(=O)(=O)c2cc3cc(Br)cc(OC)c3oc2=O)cc1 [Compound C296]	–	–	6.0	7.8	–
COc1cc(Br)cc2cc(S(=O)(=O)c3ccc(C(C)(C)C)cc3)c(=O)oc12 [Compound C297]	–	–	1.5	2.6	–
COc1cc(Br)cc2cc(S(=O)(=O)c3ccc(F)c(C)c3)c(=O)oc12 [Compound C298]	–	–	2.2	3.2	–
Cc1ccc2oc(=O)c(S(=O)(=O)c3cccc(C#N)c3)cc2c1 [Compound C299]	–	–	–	–	Firefly/Renilla (NR2F6 stable, clone F4) (Table 12): 4.0; Firefly, NR2F6 stable (clone F4)/pGL4 (Table 12): 10.1; Firefly, cmpd/DMSO repeat 1 (Table 12, repeat 1): 21.5; Firefly, cmpd/DMSO repeat 2 (Table 12, repeat 2): 15.2
Cc1ccc2oc(=O)c(S(=O)(=O)c3cccc(Cl)c3)cc2c1 [Compound C300]	–	–	–	–	Firefly/Renilla (NR2F6 stable, clone F4) (Table 13): 1.6; Firefly, NR2F6 stable (clone F4)/pGL4 (Table 13): 4.3; Firefly, cmpd/DMSO repeat 1 (Table 13, repeat 1): 9.8; Firefly, cmpd/DMSO repeat 2 (Table 13, repeat 2): 7.4
CCOC(=O)c1cnc2c(C)cc(C)cc2c1NCCCN(C)C [Compound D28]	–	–	–	–	Firefly, cmpd/DMSO (mean) (mean of repeats): 12.8; Firefly, cmpd repeat 1 (raw signal, repeat 1): 784; Firefly, cmpd repeat 2 (raw signal, repeat 2): 644; Firefly, cmpd/DMSO repeat 1 (repeat 1): 14.1; Firefly, cmpd/DMSO repeat 2 (repeat 2): 11.7
COc1ccc(OC)c(S(=O)(=O)NCc2nc3nc(C)cc(C)n3n2)c1 [Compound E4]	–	–	–	–	Firefly F4, cmpd/DMSO (mean) [3]: 0.9; Firefly NR2F6 full length, cmpd/DMSO (mean) [3]: 1.1; Firefly F4, cmpd/DMSO (mean) [4]: 0.9; Firefly NR2F6 full length, cmpd/DMSO (mean) [4]: 1.0; Firefly F4, cmpd/DMSO (mean) [5]: 0.8; Firefly NR2F6 full length, cmpd/DMSO (mean) [5]: 1.0
COc1ccc(S(=O)(=O)NCc2nc3nc(C)cc(C)n3n2)cc1OC [Compound E8]	–	–	–	–	Firefly F4, cmpd/DMSO (mean) [3]: 1.0; Firefly NR2F6 full length, cmpd/DMSO (mean) [3]: 1.2; Firefly F4, cmpd/DMSO (mean) [4]: 1.0; Firefly NR2F6 full length, cmpd/DMSO (mean) [4]: 1.2; Firefly F4, cmpd/DMSO (mean) [5]: 0.7; Firefly NR2F6 full length, cmpd/DMSO (mean) [5]: 0.9
